Test results: PubChem BioAssay AID328 (DTP/NCI, 2004)
Values joined by “and” are separate entries in the source; they are usually repeats but may differ in a detail not shown here. Identical values can stand only once. Inconclusive results and toxic doses are left out.

Test system: BDF1 mice, P388 leukemia ip, median survival T/C
Assay: NCI In Vivo Anticancer Drug Screen. Data for tumor model P388 Leukemia (intraperitoneal) in B6D2F1 (BDF1) mice
Conditions: endpoint: median survival time, higher = longer survival
How it was run: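 Steps: implant the tumour, treat one group with compound and another with vehicle, record survival, then divide treated by control.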

[1] = dose: 100.0 mg/kg/injection, schedule: Q01DX009 (ip), vehicle: Klucel (hydroxypropylcellulose) (HPC)
[2] = dose: 200.0 mg/kg/injection, schedule: Q01DX009 (ip), vehicle: Klucel (hydroxypropylcellulose) (HPC)
[3] = dose: 100.0 mg/kg/injection, schedule: Q01DX001 (ip), vehicle: saline with Tween-80
[4] = dose: 200.0 mg/kg/injection, schedule: Q01DX001 (ip), vehicle: saline with Tween-80
[5] = dose: 100.0 mg/kg/injection, schedule: Q04DX003 (ip), vehicle: saline with Tween-80
[6] = dose: 100.0 mg/kg/injection, schedule: Q01DX009 (ip), vehicle: saline with Tween-80
[7] = dose: 25.0 mg/kg/injection, schedule: Q01DX009 (ip), vehicle: Klucel (hydroxypropylcellulose) (HPC)
[8] = dose: 50.0 mg/kg/injection, schedule: Q04DX003 (ip), vehicle: Klucel (hydroxypropylcellulose) (HPC)
[9] = dose: 100.0 mg/kg/injection, schedule: Q04DX003 (ip), vehicle: Klucel (hydroxypropylcellulose) (HPC)
[10] = dose: 200.0 mg/kg/injection, schedule: Q04DX003 (ip), vehicle: Klucel (hydroxypropylcellulose) (HPC)
[11] = dose: 3.13 mg/kg/injection, schedule: Q01DX009 (ip), vehicle: saline with Tween-80
[12] = dose: 6.25 mg/kg/injection, schedule: Q01DX009 (ip), vehicle: saline with Tween-80
[13] = dose: 12.5 mg/kg/injection, schedule: Q01DX009 (ip), vehicle: saline with Tween-80
[14] = dose: 50.0 mg/kg/injection, schedule: Q01DX009 (ip), vehicle: saline with Tween-80
[15] = dose: 200.0 mg/kg/injection, schedule: Q01DX009 (ip), vehicle: saline with Tween-80
[16] = dose: 200.0 mg/kg/injection, schedule: Q04DX003 (ip), vehicle: saline with Tween-80
[17] = dose: 25.0 mg/kg/injection, schedule: Q01DX009 (ip), vehicle: saline with Tween-80
[18] = dose: 400.0 mg/kg/injection, schedule: Q01DX009 (ip), vehicle: saline with Tween-80
[19] = dose: 50.0 mg/kg/injection, schedule: Q01DX009 (ip), vehicle: other
[20] = dose: 50.0 mg/kg/injection, schedule: Q01DX009 (ip), vehicle: Klucel (hydroxypropylcellulose) (HPC)

CC(C)CCCc1c[nH]c(=O)[nH]c1=O
T/C (dose: 100.0 mg/kg/injection, schedule: Q01DX001 (ip), vehicle: Klucel (hydroxypropylcellulose) (HPC)): 90 % of control | T/C [1]: 86 % of control | T/C (dose: 200.0 mg/kg/injection, schedule: Q01DX001 (ip), vehicle: Klucel (hydroxypropylcellulose) (HPC)): 90 % of control | T/C [2]: 86 % of control | T/C (dose: 400.0 mg/kg/injection, schedule: Q01DX001 (ip), vehicle: Klucel (hydroxypropylcellulose) (HPC)): 90 % of control | T/C (dose: 400.0 mg/kg/injection, schedule: Q01DX009 (ip), vehicle: Klucel (hydroxypropylcellulose) (HPC)): 91 % of control

CS(=O)(=O)NC(=O)NC(=S)c1ccccc1
T/C [3]: 100 % of control | T/C [4]: 100 % of control | T/C (dose: 400.0 mg/kg/injection, schedule: Q01DX001 (ip), vehicle: saline with Tween-80): 108 % of control

CCCCCCCCCCCCNCc1ccc(O)cc1
T/C (dose: 25.0 mg/kg/injection, schedule: Q04DX003 (ip), vehicle: saline with Tween-80): 104 % of control | T/C (dose: 50.0 mg/kg/injection, schedule: Q04DX003 (ip), vehicle: saline with Tween-80): 100 % of control | T/C [5]: 108 % of control

Nc1ncnc2c1nnn2C1CC(CO)C(O)C1O (centres undefined)
T/C (dose: 67.0 mg/kg/injection, schedule: Q01DX009 (ip), vehicle: saline with Tween-80): 163 % of control | T/C (dose: 75.0 mg/kg/injection, schedule: Q01DX009 (ip), vehicle: saline with Tween-80): 153 % of control | T/C [6]: 168 % of control

COC(=O)c1ccc(C(=O)O)[n+]([O-])c1
T/C [7]: 96 % of control | T/C (dose: 25.0 mg/kg/injection, schedule: Q04DX003 (ip), vehicle: Klucel (hydroxypropylcellulose) (HPC)): 100 % of control | T/C [8]: 104 % of control | T/C [1]: 88 % of control | T/C [9]: 113 % of control | T/C [2]: 89 % of control | T/C [10]: 95 % of control | T/C (dose: 400.0 mg/kg/injection, schedule: Q04DX003 (ip), vehicle: Klucel (hydroxypropylcellulose) (HPC)): 87 % of control

Cc1ccc(NCN2C(=O)NC(c3ccccc3)(c3ccccc3)C2=O)cc1
T/C [3]: 90 % of control | T/C [4]: 95 % of control

CC1CN(N)CC(C)N1Cc1ccccc1 (centres undefined)
T/C (dose: 3.12 mg/kg/injection, schedule: Q04DX003 (ip), vehicle: water): 98 % of control | T/C (dose: 6.25 mg/kg/injection, schedule: Q04DX003 (ip), vehicle: water): 104 % of control | T/C (dose: 12.5 mg/kg/injection, schedule: Q04DX003 (ip), vehicle: water): 108 % of control | T/C (dose: 25.0 mg/kg/injection, schedule: Q04DX003 (ip), vehicle: water): 113 % of control

NN(c1ccccc1)c1ccc2ccccc2c1
T/C [8]: 95 % of control | T/C [9]: 104 % of control | T/C [10]: 109 % of control

CC/C(C)=N\NC(=S)SC
T/C [11]: 98 % of control | T/C [12]: 102 % of control | T/C [13]: 102 % of control

Cc1cccc(C)c1NC(=S)N(C)C
T/C [11]: 100 % of control | T/C [12]: 100 % of control | T/C (dose: 12.0 mg/kg/injection, schedule: Q01DX001 (ip), vehicle: Klucel (hydroxypropylcellulose) (HPC)): 109 % of control | T/C [13]: 95 % of control | T/C (dose: 25.0 mg/kg/injection, schedule: Q01DX001 (ip), vehicle: Klucel (hydroxypropylcellulose) (HPC)): 100 % of control | T/C (dose: 50.0 mg/kg/injection, schedule: Q01DX001 (ip), vehicle: Klucel (hydroxypropylcellulose) (HPC)): 100 % of control | T/C (dose: 100.0 mg/kg/injection, schedule: Q04DX003 (ip), vehicle: saline): 100 % of control

CCC1CC(O)c2c(O)c3c(c(O)c2C1O)C(=O)c1cccc(O)c1C3=O (centres undefined) (tested in a mixture with another compound)
T/C (dose: 0.5 mg/kg/injection, schedule: Q01DX001 (ip), vehicle: saline): 100 % of control | T/C (dose: 1.0 mg/kg/injection, schedule: Q01DX001 (ip), vehicle: saline): 109 % of control | T/C (dose: 2.0 mg/kg/injection, schedule: Q01DX001 (ip), vehicle: saline): 109 % of control

CC(C)(C)/C([O-])=N/[N+](C)(C)Cc1ccccc1
T/C (dose: 100.0 mg/kg/injection, schedule: Q01DX001 (ip), vehicle: saline): 109 % of control | T/C (dose: 200.0 mg/kg/injection, schedule: Q01DX001 (ip), vehicle: saline): 104 % of control | T/C (dose: 400.0 mg/kg/injection, schedule: Q01DX001 (ip), vehicle: saline): 104 % of control

O=C1CC(c2ccc(O)cc2)CC(=O)C1C(C1CC=CCC1)N(CCCl)CCCl (centres undefined)
T/C [9]: 109 % of control and 87 % of control | T/C [10]: 120 % of control

COC(C)c1cnccc1C(C)c1cc2ccccc2[nH]1 (centres undefined)
T/C [3]: 105 % of control | T/C [4]: 108 % of control

CCCCN(CCCC)CCNc1ccc(Cl)c2oc3cc(C)ccc3c(=O)c12
T/C [14]: 100 % of control | T/C [6]: 104 % of control | T/C [5]: 100 % of control | T/C [15]: 104 % of control | T/C [16]: 100 % of control

CC(C)COC(=O)NCCF
T/C [12]: 107 % of control | T/C [13]: 112 % of control | T/C [17]: 120 % of control

CCCC(=O)Nc1ccc([N+](=O)[O-])cc1OC
T/C [6]: 90 % of control | T/C [15]: 100 % of control | T/C [18]: 100 % of control

Cc1cc(C)c(N)c(Br)c1
T/C (dose: 12.5 mg/kg/injection, schedule: Q01DX009 (ip), vehicle: other): 90 % of control | T/C (dose: 25.0 mg/kg/injection, schedule: Q01DX009 (ip), vehicle: other): 90 % of control | T/C [19]: 114 % of control | T/C (dose: 100.0 mg/kg/injection, schedule: Q04DX003 (ip), vehicle: other): 100 % of control

CN(C)c1ccc(/C=C/c2cc(N(CCO)CCO)c3ccccc3n2)cc1
T/C [14]: 100 % of control | T/C [6]: 99 % of control | T/C [15]: 91 % of control

COc1cc(N)c2ncsc2c1[N+](=O)[O-]
T/C [20]: 89 % of control | T/C [1]: 105 % of control | T/C [2]: 106 % of control

c1ccc2c(c1)ccc1cc3cc(NCCCCNc4ccc5nc6c(ccc7ccccc76)cc5c4)ccc3nc12
T/C (dose: 1.56 mg/kg/injection, schedule: Q01DX009 (ip), vehicle: saline with Tween-80): 108 % of control | T/C [11]: 105 % of control | T/C [12]: 108 % of control

O=C(CO)c1ccc([N+](=O)[O-])cc1
T/C [14]: 106 % of control

CCSc1ccc2c(cc1=O)[C@@H](NC1OC(CO)C(O)C(O)C1O)CCc1cc(OC)c(OC)c(OC)c1-2 (some centres undefined)
T/C [19]: 106 % of control and 111 % of control | T/C (dose: 100.0 mg/kg/injection, schedule: Q01DX009 (ip), vehicle: other): 106 % of control and 115 % of control | T/C (dose: 200.0 mg/kg/injection, schedule: Q01DX009 (ip), vehicle: other): 112 % of control

C=CCNC(=O)C(Br)(CC)CC
T/C (dose: 12.5 mg/kg/injection, schedule: Q01DX009 (ip), vehicle: saline): 100 % of control | T/C (dose: 25.0 mg/kg/injection, schedule: Q01DX009 (ip), vehicle: saline): 100 % of control | T/C (dose: 50.0 mg/kg/injection, schedule: Q01DX009 (ip), vehicle: saline): 88 % of control and 100 % of control

Cc1ccc(S(=O)(=O)NCN2C(=O)c3ccccc3C2=O)cc1
T/C (dose: 12.5 mg/kg/injection, schedule: Q01DX009 (ip), vehicle: Klucel (hydroxypropylcellulose) (HPC)): 100 % of control | T/C [7]: 100 % of control | T/C [17]: 86 % of control | T/C [20]: 105 % of control | T/C (dose: 100.0 mg/kg/injection, schedule: Q01DX009 (ip), vehicle: saline): 91 % of control

O=C1c2ccccc2C(=O)N1OC1CCCCO1 (centres undefined)
T/C [6]: 91 % of control | T/C [5]: 100 % of control | T/C [15]: 87 % of control | T/C [16]: 108 % of control | T/C [18]: 100 % of control | T/C (dose: 400.0 mg/kg/injection, schedule: Q04DX003 (ip), vehicle: saline with Tween-80): 104 % of control
